From patent publication US9623063B2, “Extracts from Ajuga reptans cell lines, their preparation and use” (I.R.B. ISTITUTO DI RICERCHE BIOTECNOLOGICHE S.r.l., priority 2005, dated 2017)

Tests used:
[1] = Hydroxyl radical scavenger activity (Fenton reaction, luminol chemiluminescence); assay type: biochemical; conditions: means of 6 independent assays
From the text: (§1) Ajuga reptans Extracts 1 and 2, prepared as described in examples 1 and 2, and isoteupolioside have been used to assess in vitro antioxidant action with specific oxygen radical generating systems such as the superoxide anion (O2^−), the hydroxyl radical (HO^−), the peroxynitrite radical (ONOO^−) and the inhibition of lipid peroxidation. The superoxide anion has been measured by a chemiluminescent assay based on the hypoxanthine (HPX)/xanthine oxidase (XOD) reaction using the Lumimax Superoxide Anion Detection Kit (Stratagene, La Jolla, Calif., USA) and following the manufacturer's instructions. Hydroxyl radical scavenger activity has been measured by means of the Fenton reaction for the production of hydroxyl radicals and chemiluminescent dosage (using a Victor^3 chemiluminometer, Wallac, Finland) with luminol. Peroxynitrite ions have been determined by means of dosage with a spontaneous generator of peroxynitrites (3-morpholinosidnonimine hydrochloride; SIN-1) and a stable reagent for the nitroxyl ions (2-(4-carboxyphenyl)-4,4,5,5-tetramethylimidazoline-1-oxyl-3-oxide potassium salt PTIO spin trap) then dosed by means of electron spin resonance (ESR) using a Nippon Denshi JES-FR30. Lipid peroxidation has been generated using Fe^2+ induced-oxygen reactive species, and detected using thiobarbituric acid in accordance with Buege, J A & Aust, S D: Microsomal lipid peroxidation (Methods Enzymol.
The Extract 1 and the Extract 2 set forth in Table 4 are derived from Ajuga reptans cell cultures comprising the phenylpropanoids at 90% and 54%, respectively. The results are expressed as the concentration inhibiting 50% of activity (IC50), means of 6 independent assays.

[2] = Peroxynitrite scavenging (SIN-1, PTIO spin trap, ESR); assay type: biochemical; conditions: means of 6 independent assays
From the text: as §1, with “The” for “Ajuga reptans Extracts 1 and 2, prepared as described in examples 1 and 2, and isoteupolioside have been used to assess in vitro antioxidant action with specific oxygen radical generating systems such as the superoxide anion (O2^−), the hydroxyl radical (HO^−), the peroxynitrite radical (ONOO^−) and the inhibition of lipid peroxidation. The”
(§2) The results are expressed as the concentration inhibiting 50% of activity (IC50), means of 6 independent assays.

[3] = Superoxide anion chemiluminescent assay (hypoxanthine/xanthine oxidase, Lumimax kit); assay type: biochemical; conditions: means of 6 independent assays
From the text: as §1, with “The” for “Ajuga reptans Extracts 1 and 2, prepared as described in examples 1 and 2, and isoteupolioside have been used to assess in vitro antioxidant action with specific oxygen radical generating systems such as the superoxide anion (O2^−), the hydroxyl radical (HO^−), the peroxynitrite radical (ONOO^−) and the inhibition of lipid peroxidation. The”
as §2

A549 cells (ATCC-CCL185) = experiment: BSO-induced oxidative stress, ROS by DCF fluorimetry in A549 cells; assay type: cell-based, human; conditions: with BSO, control without BSO = 100
Description: 10×10^5 A549 cells (ATCC-CCL185) have been seeded into wells with 3 ml of DMEM/F12K HAM medium (Sigma-Aldrich) with 10% FCS and incubated at 37° C. in a 5% CO2, water vapour saturated atmosphere. After 24 hours the culture medium is replaced by medium supplemented with BSO, which is left in contact with the cells for 20 hours. The medium is once again replaced with medium containing BSO in the presence or absence of the test compound. After 4 hours, quantitative measurement of the ROSs (hydroxyl radicals) is performed by washing the cells with phosphate buffer and then incubating them with 30 μM DCF-DA in buffer solution. At the end of a 15 minute incubation, excess DCF-DA is removed from the cells by washing, prior to measuring the fluorescence emitted.
Antioxidant activity measurements are performed using a (Hitachi F3010) spectrophotometer with excitation at 488 nm and measuring emission at 525 nm, and values are expressed in pmoles, by extrapolation from the calibration curve constructed using known quantities of DCF, and in relation to total cellular protein. Values are thus expressed in % ages with respect to the ROS content of the cells not subjected to treatment with BSO (control) to which are assigned a value of 100.
The Extracts 1 and 2, Teupolioside and Ascorbic Acid were solubilized in phosphate buffer 10 mM at pH 7.4, whereas trolox was solubilized in 0.1% of dimethylsulphoxide and culture medium.

3T3 fibroblasts = experiment: BSO-induced oxidative death of 3T3 fibroblasts (MTT); assay type: cell-based, BALB/c mouse; conditions: 1 mM; BSO 200 μM, 24 hours
tyrosinase [4] = experiment: Tyrosinase inhibition, oxidation of L-tyrosine to L-DOPA; assay type: biochemical; conditions: 250 μg/ml
From the text: (§3) The enzyme tyrosinase catalyses the reactions leading to melanin biosynthesis from tyrosine. […] Substances inhibiting tyrosinase activity produce a clearing/bleaching effect on the skin, since they block melanin synthesis. The method used to determine the inhibition of tyrosinase activity in the oxidation reaction of L-tyrosine to L-DOPA is that described in Kim et al. […] Biol. Pharm. […] The method applied for determination of the inhibition of tyrosinase activity in the conversion of L-DOPA to DOPAquinone is that described in Masamoto et al. (Mushroom tyrosinase inhibitory activity of esculetin isolated from seeds of Euphorbia lathyris L. Biosci. Biotechnol. Biochem., 67(3), 631-634, 2003).

tyrosinase [5] = experiment: Tyrosinase inhibition, conversion of L-DOPA to DOPAquinone; assay type: biochemical; conditions: 100 μg/ml
From the text: as §3

In the case of O=C1c2c(O)cccc2C([C@@H]2O[C@H](CO)[C@@H](O)[C@H](O)[C@H]2O)c2cc(CO)cc(O)c21 (stereo partly shown) [Aloin, reference compound], the “Hydroxyl radial (IC50)” value [1] is reported as 2.9 µg/mL, the “Peroxynitrite radical (IC50)” value [2] is reported as 12.3 µg/mL and the “Superoxide radical (IC50)” value [3] is reported as 7.6 µg/mL.
With Cc1c(C)c2c(c(C)c1O)CCC(C)(C(=O)O)O2 (stereo not shown) [Trolox] the “% ROS in picomoles” value (A549 cells (ATCC-CCL185); 20 μM) was 125 ± 8 %.
For O=C1O[C@H]([C@@H](O)CO)C(O)=C1O [Ascorbic acid, reference compound], the “% survived cells” value (3T3 fibroblasts) was 72.3% and the “% ROS in picomoles” value (A549 cells (ATCC-CCL185); 1 mM) was 130 ± 10 %.
For O=c1cc(CO)occ1O [Kojic acid, reference compound], the “Test L-tyrosine-DOPA inhibitory activity (%)” value (tyrosinase [4]) was 94.1% and the “Test LDOPA-DOPAquinone inhibitory activity (%)” value (tyrosinase [5]) was 35%.
With Oc1cccc(O)c1 [Resorcinol, reference compound] the “Test L-tyrosine-DOPA inhibitory activity (%)” value (tyrosinase [4]) was 56.9% and the “Test LDOPA-DOPAquinone inhibitory activity (%)” value (tyrosinase [5]) was 0%.
